Results from patent US20090298903A1, “USE OF TETRAMIC ACID DERIVATIVES FOR INSECT CONTROL” (priority 2006, published 2009).

Experiments:
Type in all cases: in vivo
[1] = test system: oriental fruit moth (Laspeyresia molesta); test: Example 28: peach trees against oriental fruit moth; conditions: 41 d after treatment, Pyrifroxyfen (35 WP) 123, Acetamiprid (30 SG) 168, (I-4) (150 OD) 153 g a.s./ha
Method: Approx. 10-year-old peach trees are treated, in four replications, against the oriental fruit moth (Laspeyresia molesta). The application is carried out with a knapsack sprayer which is operated with pressurized air. Here, the active substance (I-4) (150 OD) is tested against the commercial standards Pyriproxyfen (35 WP) and Acetamiprid (30 SG) at the specified application rates. The water application rate is 935 l/ha.
The test is evaluated 41 days after the treatment by scoring the destruction rate of the animals on the trees.

Thrips tabaci = test: Example 11: dwarf beans against Thrips tabaci
Method: Plots approx. 26 m^2 in size which are planted with dwarf beans are treated 16 days after emergence against Thrips tabaci, in four replications. The application is carried out with a knapsack sprayer which is operated with pressurized air. Here, the active substances Example (I-2) (240 SC) (I-4) (240 SC) and Example (I-9) (240 SC), in a tank mix with 0.1% a.s. rapeseed oil methyl ester (500 EW), are tested against the commercial standard Profenofos (720 EC) at the specified application rates. The water application rate is 1000 l/ha. Two applications are carried out at an interval of 10 days.
The test is evaluated 5 and 11 days after the first treatment by scoring the destruction rate of the nymphs on the leaves.

Liriomyza sp. = test: Example 18: beans against Liriomyza sp.
Method: Plots approx. 10 m^2 in size which are planted with beans cv. “Lago Azul” are treated, in three replications, against Liriomyza sp. Here, the active substance Example (I-4) (150 OD) and the commercial standards Cyromazine (WP 75) and Abamectin (EC 018) are applied at the specified application rates, using a knapsack sprayer which is operated with pressurized gas. The water application rate is 400 and 500 l/ha., respectively. Three applications are carried out at intervals of in each case 7 days.
The destruction rate in percent is determined on in each case 10 leaves. 2, 7, 12, 18, 20 and 25 days after the first treatment, the following results are obtained: […]

sawflies Hoplocampa sp. = test: Example 31: apple trees against sawflies; conditions: 57 d after treatment, larvae on fruits, Thiacloprid (SC 480) 48 + deltamethrin 3.75 tank mix, (I-4) (150 OD) 48 g a.s./ha/m crown level
Method: Apple trees cv. “Holsteiner Cox” in plots approx. 20 m^2 in size are treated, in 4 replications, against sawflies Hoplocampa sp. Here, the active substance Example (I-4) (150 OD) at the specified application rate is tested against a tank mix of the commercial standards Thiacloprid (SC 480) and Deltamethrin-liquid in the specified application rates. The application is carried out with a knapsack sprayer. Here, the treatment is effected with a water application rate of 500 l/ha/m crown level.
The test is evaluated 57 days after the treatment by scoring the destruction of the larvae on the fruits with the aid of the Abbott method.

Lema melanopa = test: Example 25: winter wheat against Lema melanopa; conditions: 3 days after the last of two treatments (interval 7 days), larvae, Calypso (240 OD) 72, (I-4) (240 SC + 0.2% rapeseed oil methyl ester) 96 g a.s./ha
Method: Plots approx. 25 m^2 in size which are planted with winter wheat cv. “Capfem” are treated, in four replications, against Lema melanopa. The application is carried out with a knapsack sprayer which is operated with pressurized air. Here, the active substance Example (I-4) (240 SC), in a tank mix together with 0.2% a.s. rapeseed oil methyl ester (500 EW) and the commercial standard Calypso (240 OD), is applied at the specified application rates. Two applications are carried out at an interval of 7 days, with a water application rate of 350 l/ha.
The test is evaluated 3 days after the last treatment by scoring the destruction rate of the larvae on the plants.

Dasineura pyri = test: Example 19b): pear trees against Dasineura pyri; conditions: 9 d after treatment 2, larvae in rolled leaves
Method: Fully-grown pear trees cv. “Conference” of crown height approx. 3.5 m are treated, in four replications, against Dasineura pyri. Here, the active substance Example (I-4) is tested as (150 OD) and (240 SC) together with 0.1% a.s. rapeseed oil methyl ester (Mero 733 1R) in a tank mix at the specified application rate against the commercial standard Endosulfan (350 EC) at the specified application rate. The application is carried out with a spray diffuser. Here, the treatment is effected with a water application rate of 1000 l/ha/m crown level. Two applications are carried out at an interval of 7 days.
The test is evaluated 9 days after treatment 2 by scoring the destruction rate of the larvae in the rolled leaves, using the Abbott method.

Carpocapsa pomonella = test: Example 29: apple trees against Carpocapsa pomonella, fruit damage; conditions: application rate printed as g a.s./ha: Chlorpyrifos-methyl (25 WP) 0.1, (I-4) (240 SC + 0.1% Steffes Mero) 0.012
Method: Approx. 15-year-old apple trees cv. “Golden Delicious” are treated, in four replications, against Carpocapsa pomonella. The application is carried out with an atomizer. Here, the active substance Example (I-4) (240 SC) in a tank mix together with 0.1% a.s. of the adjuvant Steffes Mero (rapeseed oil methyl ester) (733 1R) and the commercial standard Chlorpyrifos-methyl (25 WP) are tested at the specified application rates. The water application rate is 1052 l/ha. Two applications are carried out at an interval of 13 days.
The test is evaluated 32 days after treatment 2 by scoring the fruit damage with the aid of the Abbott formula.

Question: Which results are given for `CCOC(=O)OC1=C(c2cc(C)ccc2C)C(=O)N[C@]12CC[C@@H](OC)CC2` [Example (I-4)]?
Answer: Efficacy (% Abbott) 41 d [1]: 48.1 % Abbott; Efficacy (% Abbott) 5 d (Thrips tabaci; 5 d after first treatment, nymphs on leaves, Profenofos (720 EC) 1300, (I-9) 54, (I-2) 54, (I-4) 60 g a.s./ha, 240 SC + 0.1% rapeseed oil methyl ester): 60 % Abbott; Efficacy (% Abbott) 11 d (Thrips tabaci; 11 d after first treatment (second application at 10 days), Profenofos 1300, (I-9) 54, (I-2) 54, (I-4) 60 g a.s./ha): 90 % Abbott; Efficacy (% Abbott) 2 d (Liriomyza sp.; 2 d after first treatment, 10 leaves, Cyromazine (WP 75) 130, (I-4) (150 OD) 100, Abamectin (EC 018) 14.4 g a.s./ha, three applications, 7-day intervals): 40 % Abbott; Efficacy (% Abbott) 7 d (Liriomyza sp.; 7 d after first treatment, Cyromazine 130, (I-4) 100, Abamectin 14.4 g a.s./ha): 69 % Abbott; Efficacy (% Abbott) 12 d (Liriomyza sp.; 12 d after first treatment, Cyromazine 130, (I-4) 100, Abamectin 14.4 g a.s./ha): 30 % Abbott; Efficacy (% Abbott) 18 d (Liriomyza sp.; 18 d after first treatment, Cyromazine 130, (I-4) 100, Abamectin 14.4 g a.s./ha): 43 % Abbott; Efficacy (% Abbott) 20 d (Liriomyza sp.; 20 d after first treatment, Cyromazine 130, (I-4) 100, Abamectin 14.4 g a.s./ha): 57 % Abbott; Efficacy (% Abbott) 25 d (Liriomyza sp.; 25 d after first treatment, Cyromazine 130, (I-4) 100, Abamectin 14.4 g a.s./ha): 46 % Abbott; Efficacy (%) Abbott 57 d (sawflies Hoplocampa sp.): 98%; Efficacy (% Abbott) 10 d (Lema melanopa): 82.1 % Abbott; Efficacy (% Abbott) 9 d (Dasineura pyri; (I-4) as 150 OD, 150 g a.s./ha/m crown level): 100 % Abbott; Efficacy (% Abbott) 9 d (Dasineura pyri; Endosulfan (350 EC) 472.5, (I-4) as 240 SC + Mero (0.1% rapeseed oil methyl ester) 120 g a.s./ha/m crown level): 94.6 % Abbott; Efficacy (% Abbott) 32 d after treatment 2 (Carpocapsa pomonella): 73.7 % Abbott
